Measurements: ChEMBL document CHEMBL1126344, “Substituted penta- and hexapeptides as potent inhibitors of herpes simplex virus type 2 ribonucleotide reductase” (Bioorg Med Chem Lett, 1992)
Starred links: 1 amine or outer side, 2 acyl side, 3 side chain; linkers in the order of their positions; H or OH if unused. Non-standard residues stand in square brackets, D forms with d. Residues, ends and D or L forms follow the SMILES beside them. *: point of attachment. X1 = O=C([C@H](Cc1ccc(O)cc1)N(Cc1cccc(Oc2ccccc2)c1)[*:1])[*:2]; X2 = O=C([C@H](Cc1ccc(O)cc1)N(c1ccc(-c2ccccc2)cc1)[*:1])[*:2]; X3 = O=C([C@H](Cc1ccc(O)cc1)N(Cc1ccsc1)[*:1])[*:2]; Dibenzylacetyl = O=C(C(Cc1ccccc1)Cc1ccccc1)*; NBnTyr = O=C(O)[C@H](Cc1ccc(O)cc1)NCc1ccccc1; NMeY = CN[C@@H](Cc1ccc(O)cc1)C(=O)O; tBuAla = CC(C)(C)C[C@H](N)C(=O)O; NBn2 = c1ccc(CN(Cc2ccccc2)*)cc1; Cha = N[C@@H](CC1CCCCC1)C(=O)O; AllylGly = C=CC[C@H](N)C(=O)O; Pyrrolidide = C1CCN(*)C1; NHBn = c1ccc(CN*)cc1; NMeEt = CCN(C)*

Key:
[1] = Inhibitory activity of YAGAVVNDL against Herpes Simplex Virus type 2 (HSV-2) ribonucleotide reductase determined as control; design: species or system Human alphaherpesvirus 2
[2] = The compound was tested in vitro for inhibitory activity against Herpes Simplex Virus type 2 ribonucleotide reductase; design: species or system Human alphaherpesvirus 2
Human alphaherpesvirus 2 = assay: Relative potency to that of YAGAVVNDL against Herpes Simplex Virus type 2 ribonucleotide reductase

## CC(C)[C@H](NC(=O)[C@H](Cc1ccc(O)cc1)NCc1ccccc1)C(=O)N[C@H](C(=O)N[C@@H](CC(=O)N(C)C)C(=O)N[C@@H](CC(=O)O)C(=O)N[C@@H](CC(C)(C)C)C(=O)O)C(C)C (H-[NBnTyr]VVD(NMe2)D[tBuAla]-OH)
[1]
  IC50: 18 µM
[2]
  IC50: 0.3 µM
Human alphaherpesvirus 2
  Relative potency: 60

## COC(=O)C[C@H](NC(=O)[C@@H](NC(=O)[C@@H](NC(=O)[C@@H](N)Cc1ccccc1)C(C)C)C(C)C)C(=O)N[C@@H](CC(=O)O)C(=O)N[C@@H](CC(C)C)C(=O)O (H-FVVD(OMe)DL-OH)
[1]
  IC50: 27 µM
[2]
  IC50: 2 µM
Human alphaherpesvirus 2
  Relative potency: 14

## CC(C)C[C@H](NC(=O)[C@H](CC(=O)O)NC(=O)[C@H](CC(=O)NCc1ccccc1)NC(=O)[C@@H](NC(=O)[C@@H](NC(=O)[C@@H](N)Cc1ccc(O)cc1)C(C)C)C(C)C)C(=O)O (H-YVVD(NHBn)DL-OH)
[1]
  IC50: 22 µM
[2]
  IC50: 4 µM
Human alphaherpesvirus 2
  Relative potency: 5.5

## CC(C)C[C@H](NC(=O)[C@H](CC(=O)O)NC(=O)[C@H](CC(N)=O)NC(=O)[C@@H](NC(=O)[C@@H](NC(=O)C(Cc1ccc(O)cc1)Cc1ccc(O)cc1)C(C)C)C(C)C)C(=O)O
[1]
  IC50: 35 µM
[2]
  IC50: 6.5 µM
Human alphaherpesvirus 2
  Relative potency: 5.4

## CC(C)[C@H](NC(=O)[C@H](Cc1ccc(O)cc1)NCc1ccccc1)C(=O)N[C@H](C(=O)N[C@@H](CC(N)=O)C(=O)N[C@@H](CC(=O)O)C(=O)N[C@@H](CC(C)(C)C)C(=O)O)C(C)C (H-[NBnTyr]VVND[tBuAla]-OH)
[1]
  IC50: 35 µM
[2]
  IC50: 1.5 µM
Human alphaherpesvirus 2
  Relative potency: 23

## C=CC[C@H](NC(=O)[C@H](CC(=O)O)NC(=O)[C@H](CC(N)=O)NC(=O)[C@@H](NC(=O)[C@@H](NC(=O)[C@@H](N)Cc1ccc(O)cc1)C(C)C)C(C)C)C(=O)O (H-YVVND[AllylGly]-OH)
[1]
  IC50: 22 µM
[2]
  IC50: > 430 µM

## CC(C)C[C@H](NC(=O)[C@H](CC(=O)O)NC(=O)[C@H](CC(N)=O)NC(=O)[C@@H](NC(=O)[C@@H](NC(=O)[C@@](C)(N)Cc1ccc(O)cc1)C(C)C)C(C)C)C(=O)O (stereo in doubt; form 1) [listing 1 of 2 here]
Human alphaherpesvirus 2
  Relative potency: 0.52

## CC(C)[C@H](NC(=O)[C@@H](NC(=O)[C@@H](N)Cc1ccc(O)cc1)C(C)C)C(=O)N[C@@H](CC(=O)N(C)C)C(=O)N[C@@H](CC(=O)O)C(=O)N[C@@H](CC(C)(C)C)C(=O)O (H-YVVD(NMe2)D[tBuAla]-OH)
[1]
  IC50: 22 µM
[2]
  IC50: 0.2 µM
Human alphaherpesvirus 2
  Relative potency: 110

## CC(C)[C@H](NC(=O)C(Cc1ccccc1)Cc1ccccc1)C(=O)N[C@H](C(=O)N[C@@H](CC(=O)N(C)C)C(=O)N[C@@H](CC(=O)O)C(=O)N[C@@H](CC(C)(C)C)C(=O)O)C(C)C (Dibenzylacetyl-VVD(NMe2)D[tBuAla]-OH)
[1]
  IC50: 21 µM
[2]
  IC50: 0.3 µM
Human alphaherpesvirus 2
  Relative potency: 70

## CC(C)C[C@H](NC(=O)[C@H](CC(=O)O)NC(=O)[C@H](CC(N)=O)NC(=O)[C@@H](NC(=O)[C@@H](NC(=O)C(Cc1ccccc1)Cc1ccc(O)cc1)C(C)C)C(C)C)C(=O)O (stereo in doubt; form 2) [listing 1 of 2 here]
Human alphaherpesvirus 2
  Relative potency: 6

## CC(C)C[C@H](NC(=O)[C@H](CC(=O)O)NC(=O)[C@H](CC(N)=O)NC(=O)[C@@H](NC(=O)[C@@H](NC(=O)[C@H](Cc1ccc(O)cc1)Nc1ccc(-c2ccccc2)cc1)C(C)C)C(C)C)C(=O)O (H-[X2]VVNDL-OH)
[1]
  IC50: 34 µM
[2]
  IC50: 32 µM
Human alphaherpesvirus 2
  Relative potency: 1.1

## CC(C)C[C@H](NC(=O)[C@H](CC(=O)O)NC(=O)[C@H](CC(N)=O)NC(=O)[C@@H](NC(=O)[C@@H](NC(=O)CCc1ccccc1)C(C)C)C(C)C)C(=O)O
[1]
  IC50: 17 µM
[2]
  IC50: 11 µM
Human alphaherpesvirus 2
  Relative potency: 1.5

## CC(C)[C@H](NC(=O)C(Cc1ccccc1)Cc1ccccc1)C(=O)N[C@H](C(=O)N[C@@H](CC(N)=O)C(=O)N[C@@H](CC(=O)O)C(=O)N[C@@H](CC(C)(C)C)C(=O)O)C(C)C (Dibenzylacetyl-VVND[tBuAla]-OH)
[1]
  IC50: 12 µM
[2]
  IC50: 0.1 µM
Human alphaherpesvirus 2
  Relative potency: 120

## CC(C)C[C@H](NC(=O)[C@H](CC(=O)O)NC(=O)[C@H](CC(N)=O)NC(=O)[C@@H](NC(=O)[C@@H](NC(=O)CC(c1ccccc1)c1ccccc1)C(C)C)C(C)C)C(=O)O
[1]
  IC50: 60 µM
[2]
  IC50: 10 µM
Human alphaherpesvirus 2
  Relative potency: 6

## CC(C)C[C@H](NC(=O)[C@H](CC(=O)O)NC(=O)[C@H](CC(=O)N(C)C)NC(=O)[C@@H](NC(=O)[C@@H](NC(=O)[C@@H](N)CC(=O)O)C(C)C)C(C)C)C(=O)O (H-DVVD(NMe2)DL-OH)
[1]
  IC50: 9.5 µM
[2]
  IC50: 0.15 µM
Human alphaherpesvirus 2
  Relative potency: 63

## CC(C)C[C@H](NC(=O)[C@H](CC(=O)O)NC(=O)[C@H](CC(=O)N(Cc1ccccc1)Cc1ccccc1)NC(=O)[C@@H](NC(=O)[C@@H](NC(=O)[C@@H](N)Cc1ccc(O)cc1)C(C)C)C(C)C)C(=O)O (H-YVVD(NBn2)DL-OH)
[1]
  IC50: 25 µM
[2]
  IC50: 2 µM
Human alphaherpesvirus 2
  Relative potency: 13

## CC(C)C[C@H](NC(=O)[C@H](CC(=O)O)NC(=O)[C@H](CC(N)=O)NC(=O)[C@@H](NC(=O)[C@@H](NC(=O)[C@@](C)(N)Cc1ccc(O)cc1)C(C)C)C(C)C)C(=O)O (stereo in doubt; form 2) [listing 1 of 2 here]
Human alphaherpesvirus 2
  Relative potency: 0.25

## CC(C)C[C@H](NC(=O)[C@H](CC(=O)O)NC(=O)[C@H](CC(=O)N1CCCC1)NC(=O)[C@@H](NC(=O)[C@@H](NC(=O)[C@@H](N)Cc1ccc(O)cc1)C(C)C)C(C)C)C(=O)O (H-YVVD(Pyrrolidide)DL-OH)
[1]
  IC50: 32 µM
[2]
  IC50: 1 µM
Human alphaherpesvirus 2
  Relative potency: 32

## CC(C)[C@H](NC(=O)C(Cc1ccccc1)Cc1ccccc1)C(=O)N[C@H](C(=O)N[C@@H](CC(=O)NCc1ccccc1)C(=O)N[C@@H](CC(=O)O)C(=O)N[C@@H](CC(C)(C)C)C(=O)O)C(C)C (Dibenzylacetyl-VVD(NHBn)D[tBuAla]-OH)
[1]
  IC50: 10 µM
[2]
  IC50: 0.2 µM
Human alphaherpesvirus 2
  Relative potency: 50

## CC(C)C[C@H](NC(=O)[C@H](CC(=O)O)NC(=O)[C@H](CC(N)=O)NC(=O)[C@@H](NC(=O)[C@@H](NC(=O)C(Cc1ccccc1)Cc1ccc(O)cc1)C(C)C)C(C)C)C(=O)O (stereo in doubt; form 1)
Human alphaherpesvirus 2
  Relative potency: 21

## CCN(C)C(=O)C[C@H](NC(=O)[C@@H](NC(=O)[C@@H](NC(=O)[C@@H](N)Cc1ccc(O)cc1)C(C)C)C(C)C)C(=O)N[C@@H](CC(=O)O)C(=O)N[C@@H](CC(C)C)C(=O)O (H-YVVD(NMeEt)DL-OH)
[1]
  IC50: 10 µM
[2]
  IC50: 0.4 µM
Human alphaherpesvirus 2
  Relative potency: 25

## CC(C)C[C@H](NC(=O)[C@H](CC(=O)O)NC(=O)[C@H](CC(N)=O)NC(=O)[C@@H](NC(=O)[C@@H](NC(=O)C(c1ccccc1)c1ccccc1)C(C)C)C(C)C)C(=O)O
[1]
  IC50: 24 µM
[2]
  IC50: 90 µM
Human alphaherpesvirus 2
  Relative potency: 0.27

## CC(C)C[C@H](NC(=O)[C@H](CC(=O)O)NC(=O)[C@H](CC(N)=O)NC(=O)[C@@H](NC(=O)[C@@H](NC(=O)[C@H](Cc1ccc(O)cc1)NCc1cccc(Oc2ccccc2)c1)C(C)C)C(C)C)C(=O)O (H-[X1]VVNDL-OH)
[1]
  IC50: 40 µM
[2]
  IC50: 12 µM
Human alphaherpesvirus 2
  Relative potency: 3.3

## CC(C)[C@H](NC(=O)[C@@H](NC(=O)[C@@H](N)Cc1ccc(O)cc1)C(C)C)C(=O)N[C@@H](CC(N)=O)C(=O)N[C@@H](CC(=O)O)C(=O)N[C@@H](CC1CCCCC1)C(=O)O (H-YVVND[Cha]-OH)
[1]
  IC50: 16 µM
[2]
  IC50: 55 µM
Human alphaherpesvirus 2
  Relative potency: 0.29

## CC(C)C[C@H](NC(=O)[C@H](CC(=O)O)NC(=O)[C@H](CC(N)=O)NC(=O)[C@@H](NC(=O)[C@@H](NC(=O)N(c1ccccc1)c1ccccc1)C(C)C)C(C)C)C(=O)O
[1]
  IC50: 24 µM
[2]
  IC50: 170 µM
Human alphaherpesvirus 2
  Relative potency: 0.14

## CC(C)C[C@H](NC(=O)[C@H](CC(=O)O)NC(=O)[C@H](CC(N)=O)NC(=O)[C@@H](NC(=O)[C@@H](NC(=O)[C@H](Cc1ccc(O)cc1)NCc1ccsc1)C(C)C)C(C)C)C(=O)O (H-[X3]VVNDL-OH)
[1]
  IC50: 80 µM
[2]
  IC50: 20 µM
Human alphaherpesvirus 2
  Relative potency: 4

## CC(C)C[C@H](NC(=O)[C@H](CC(=O)O)NC(=O)[C@H](CC(N)=O)NC(=O)[C@@H](NC(=O)[C@@H](NC(=O)C(C)C)C(C)C)C(C)C)C(=O)O
[1]
  IC50: 5 µM
[2]
  IC50: 30 µM
Human alphaherpesvirus 2
  Relative potency: 0.17

## CC(C)C[C@H](NC(=O)[C@H](CC(=O)O)NC(=O)[C@H](CC(N)=O)NC(=O)[C@@H](NC(=O)[C@@H](NC(=O)C(Cc1ccccc1)Cc1ccc(O)cc1)C(C)C)C(C)C)C(=O)O (stereo in doubt; form 2) [listing 2 of 2 here]
[1]
  IC50: 9 µM
[2]
  IC50: 1.5 µM

## CC(C)C[C@H](NC(=O)[C@H](CC(=O)O)NC(=O)[C@H](CC(N)=O)NC(=O)[C@@H](NC(=O)[C@@H](NC(=O)[C@@](C)(N)Cc1ccc(O)cc1)C(C)C)C(C)C)C(=O)O (stereo in doubt; form 1) [listing 2 of 2 here]
[1]
  IC50: 30 µM
[2]
  IC50: 58 µM

## CC(C)C[C@H](NC(=O)[C@H](CC(=O)O)NC(=O)[C@H](CC(N)=O)NC(=O)[C@@H](NC(=O)[C@@H](NC(=O)[C@@](C)(N)Cc1ccc(O)cc1)C(C)C)C(C)C)C(=O)O (stereo in doubt; form 2) [listing 2 of 2 here]
[2]
  IC50: 120 µM

## CN[C@@H](Cc1ccc(O)cc1)C(=O)N[C@H](C(=O)N[C@H](C(=O)N[C@@H](CC(N)=O)C(=O)N[C@@H](CC(=O)O)C(=O)N[C@@H](CC(C)C)C(=O)O)C(C)C)C(C)C (H-[NMeY]VVNDL-OH)
[1]
  IC50: 15 µM
